The values that follow come from PubChem BioAssay (NCI).

Each structure is given as a SMILES string. Several values for one entry are separate records, joined by “and”; a condition that tells them apart may be missing. Equal entries are not always repeated.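 96-well plates; 48 h exposure; 5 concentrations. Endpoints by linear interpolation between flanking doses. Not reached: highest tested concentration assigned. GI50: concentration for 50% inhibition of growth. At the TGI there is no net growth.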

Common to all, as to assay: inhibition of tumour cell growth, NCI panel, 48 h
Experiment [1] relates to SNB-75 CNS.
Experiment [2] has as its system BT-549 breast.
For experiment [3], the system named is U251 CNS.
The subject of experiment [4] is M14 melanoma.
In experiment [5] the test system is OVCAR-3 ovarian.
Experiment [6] deals with NCI/ADR-RES ovarian.
The subject of experiment [7] is CAKI-1 renal.
Experiment [8] relates to SK-MEL-2 melanoma.

As to `CC[C@@]1(O)C(=O)OCc2c1cc1n(c2=O)Cc2cc3c(Cl)c4c(cc3nc2-1)OCO4`, the GI50 was 0.00288 µM in experiment [1]; under 0.001 µM in experiment [2]; under 0.001 µM in experiment [3]; under 0.001 µM in experiment [4]; 0.653 µM and 1.77 µM in experiment [5]; under 0.001 µM in experiment [6]. Besides, in experiment [7], the GI50 is under 0.001 µM. Moreover, the TGI in experiment [1] is over 100 µM; in experiment [2], 0.897 µM and 0.382 µM; in experiment [4] it was 4.02 µM; in experiment [5], over 100 µM; in experiment [7], over 100 µM.
As for `CCOP(=O)(CCN1CCN(CCCCCOc2cc3c(cc2OC)C(=O)N2CCC[C@H]2C=N3)CC1)OCC`, the GI50 in experiment [1] is 1.35 µM; in experiment [2], 5.96 µM; in experiment [4], 8.01 µM; in experiment [5] it was 7.48 µM; in experiment [6], over 100 µM; in experiment [7] it was 5.84 µM. For the same molecule, the GI50 in experiment [8] was 12.5 µM. For the same molecule, the TGI was 8.85 µM in experiment [1]; 31.7 µM in experiment [2]; 25.8 µM in experiment [4]; 34.1 µM in experiment [5]; over 100 µM in experiment [6]; 97.9 µM in experiment [7]. This molecule yielded a TGI in experiment [8] of 32 µM.
As for `O=[N+]([O-])c1ccc(Oc2cccc(C(F)(F)F)c2)c([N+](=O)[O-])c1`, the GI50 in experiment [1] was 5.11 µM; in experiment [3] it was 3.61 µM; in experiment [4], 2.79 µM; in experiment [5], 3.19 µM; in experiment [6] it was 3.04 µM; in experiment [7], 3.08 µM. The GI50 in experiment [8] was 3.81 µM. The TGI was 37.9 µM in experiment [1]; 14.2 µM in experiment [3]; 14 µM in experiment [4]; 9.21 µM in experiment [5]; 12.1 µM in experiment [6]; 21.5 µM in experiment [7]. Also, in experiment [8], the TGI was 9.82 µM.
Turning to `COc1ccc2oc(-c3cc4cc(OC)ccc4o3)cc2c1`, the TGI in experiment [1], in experiment [4], in experiment [5], in experiment [7] and in experiment [8] was over 100 µM each time.
On to `Cc1cc(N2CCN(C)CC2)nc(N(CCNc2ccnc3cc(Cl)ccc23)Cc2ccco2)n1`, for which the GI50 was 4.1 µM in experiment [1]; 2.94 µM in experiment [2]; 3.11 µM in experiment [3]; 1.78 µM in experiment [4]; 2.62 µM in experiment [5]; 3.1 µM in experiment [6]. The GI50 in experiment [8] is 2.26 µM. Also, the TGI was found to be 19.6 µM in experiment [1]; 11.8 µM in experiment [2]; 10.2 µM in experiment [3]; 3.3 µM in experiment [4]; 9.95 µM in experiment [5]; 14.8 µM in experiment [6]. The TGI in experiment [8] was 5.58 µM.
As to `NC(Cn1ccc(=O)c(O)c1)C(=O)O` (centres undefined), the TGI in experiment [2], in experiment [3], in experiment [4], in experiment [5], in experiment [6] and in experiment [7] was over 100 µM in each case. The TGI in experiment [8] was over 100 µM.
As to `Cc1cc(C(=O)N2CCN(C)CC2)c2c(=O)n(-c3ccccc3)c(=O)n(CC(O)CN3CCN(c4ncccn4)CC3)c2n1` (centres undefined), the GI50 in experiment [1], in experiment [3], in experiment [4], in experiment [5], in experiment [6] and in experiment [7] was over 100 µM throughout. Also, the GI50 in experiment [8] was over 100 µM. The TGI in experiment [1], in experiment [3], in experiment [4], in experiment [5], in experiment [6] and in experiment [7] was over 100 µM throughout. In addition, the TGI in experiment [8] was over 100 µM.
Consider `COc1ccc(/C=C/c2ccnc3ccccc23)cc1`, for which the TGI stood at 31.9 µM in experiment [3]; 31.7 µM in experiment [4]; 26.3 µM in experiment [5]; 33.6 µM in experiment [6]; 31.6 µM in experiment [7]; 38.4 µM in experiment [8].
Consider `O=c1c(-c2ccc3c(c2)OCO3)coc2c(CO)c(O)ccc12`, for which the GI50 in experiment [1] is 2.39 µM; in experiment [2], 1.47 µM; in experiment [3], 1.92 µM; in experiment [4], 3.2 µM; in experiment [5] it was 2.07 µM; in experiment [6], 3.72 µM. Besides, the GI50 in experiment [8] was 2.25 µM. Further, the TGI came out at 7.43 µM in experiment [1]; 3.41 µM in experiment [2]; 5.03 µM in experiment [3]; 14.8 µM in experiment [4]; 4.26 µM in experiment [5]; 21.4 µM in experiment [6]. Besides, the TGI in experiment [8] amounted to 5.87 µM.
As for `O=C(N/N=C/c1ccncc1)c1ccc(C(F)(F)F)nc1Nc1cccc(C(F)(F)F)c1`, the GI50 was 4.34 µM in experiment [1]; 0.613 µM in experiment [2]; 2.47 µM in experiment [3]; 1.34 µM in experiment [4]; 2.65 µM in experiment [5]; 2.67 µM in experiment [6]. Moreover, in experiment [7], the GI50 is 1.48 µM. Also, the TGI in experiment [1] worked out at 17 µM; in experiment [2], 3.59 µM; in experiment [3] it was 11.4 µM; in experiment [4], 4.03 µM; in experiment [5], 7.74 µM; in experiment [6], 9.22 µM. In experiment [7], this molecule displayed a TGI of 4.97 µM.
As to `Nc1nc2c(c(=O)[nH]1)N=C(COP(=O)(O)OP(=O)(O)O)CN2`, the TGI in experiment [1], in experiment [2], in experiment [3], in experiment [4], in experiment [6] and in experiment [7] was over 100 µM each time. For the same molecule, the TGI in experiment [8] was over 100 µM.
`Cc1cn(C2CC(N=[N+]=[N-])C(CO)O2)c(=O)[nH]c1=O` (centres undefined): the TGI in experiment [2], in experiment [4], in experiment [5], in experiment [6], in experiment [7] and in experiment [8] was over 1000 µM in each case. Also, the GI50 is over 1000 µM in experiment [4]; over 1000 µM in experiment [5]; 296 µM in experiment [6]; 479 µM in experiment [7]; over 1000 µM in experiment [8].
Consider `O=C(O)CC1C(=O)OC2C3COC(=O)c4cc(O)c(O)c(O)c4-c4c(cc(O)c(O)c4O)C(=O)OC2C(OC(=O)c2cc(O)c(O)c4c2C1C(O)C(=O)O4)C(OC(=O)c1cc(O)c(O)c(O)c1)O3` (centres undefined), for which the TGI was 41.5 µM in experiment [1]; 73 µM in experiment [3]; over 100 µM in experiment [4]; 72.8 µM in experiment [5]; 46.9 µM in experiment [6]; 42.9 µM in experiment [7]. This molecule came in with a TGI in experiment [8] of over 100 µM.
